# Marks after values point to notes of the source that are not given here.
# Tests used:
# clinical = conditions: human, in vivo; for AUC(0-inf) / half-life: both sexes
# Protocol: SNS-595 was administered to patients with advanced or refractory acute leukemias as a slow IV push. Diagnoses included AML (19 patients) and ALL (2 patients). All patients had disease refractory to or relapsed from prior therapy (median 3 prior regimens (range 1-6)).
# A total of 21 patients (9 female and 12 male; median age=64 yrs, range 21-80) were treated in five cohorts using two schedules. In the first schedule (A), a weekly dose of SNS-595 was administered for three weeks followed by 7 days off (qwk×3). In the second schedule (B), a dose of SNS-595 was administered twice a week for two weeks (biwk×2). The cycle duration, including days off, was 28 days for both schedules. […] Additional cycles were permitted if patients achieved stable disease or better. The starting dose was 18 mg/m^2 on schedule A and 9 mg/m^2 on schedule B, and dosage was escalated by cohort. Cohorts of 3-6 patients were accrued to doses using a modified Fibonacci sequence.
# Pharmacokinetic analyses for SNS-595 were performed on plasma samples collected during cycle 1.
# Plasma SNS-595 concentrations were determined using a validated LC-MS/MS assay. Plasma exposures at the first two dose levels for each schedule increased linearly, resulting in AUCs of 4.3-17.8 ughr/mL for 9-27 mg/m^2 doses. […] Six patients distributed across all dosing groups shown in Table 15 experienced greater than 50% reductions in peripheral blasts following cycle 1.
# [1] = Safety (adverse events, hematologic effects, DLT, MTD) in patients with advanced solid tumors; assay type: in vivo
# Protocol: SNS-595 was administered to patients with advanced solid cancers as an IV infusion over 10 minutes on 2 schedules. In the first schedule (A), a weekly dose of SNS-595 was administered for three weeks followed by at least 7 days off (qwk×3). In the second schedule (B), a dose of SNS-595 was administered once every three weeks (q3wk).
# In both schedules, the starting dose of SNS-595 was 3 mg/m^2, and doses were escalated by sequential cohorts of 3. The doses were doubled until the first related adverse event at or above Grade 2 or until the first abnormal lab value. The doses were then escalated by a modified Fibonacci schema.
# In the description herein, the term “maximum tolerated dose” or “MTD” refers to the dose level below a dose of SNS-595 where ≧2 of 6 patients experienced dose limiting toxicity (DLT). The term, “heavily pretreated” or “HP” patient refers to a patient who has previously received >6 courses of an alkylating agent, chemotherapy or >2 courses of platinum, mitomycin-C or any nitrosourea, or XRT to >25% of bone. […] (See, Tolcher et al, JCO 2001; 19:2937-2947).
# As used herein, dose limiting toxicity (DLT) refers to absolute neutrophil count (ANC) ≦500 for ≧7 days or febrile neutropenia or platelet nadir <25000 or bleeding or non-hematologic adverse events (AE) ≧Grade 3 (as described in Common Terminology Criteria for Adverse Events Version 3.0 (CTCAE v3.0)), wherein adverse events required >14 days dose delay.
# [2] = test system: LM3-Jck human malignant lymphoma tumor; assay: LM3-Jck xenograft model; assay type: in vivo, nude mice; conditions: for IR (%) (tumor inhibition rate): LM3-JcK, q7d X3, IV; for Survival Ratio: nude, mouse, in vivo, iv, 21 days
# Protocol: LM3-Jck human malignant lymphoma tumor lobes (2-3 mm square) were transplanted subcutaneously into nude mice. Tumors were allowed to grow to approximately 7-14 mm in diameter. […] Acceptable toxicity was defined as a mean group weight loss of 30% or less and not more than one toxic death among 6 treated animals. Anti-tumor activities of the drugs were assessed 21 days after the start of administration.
# DNAPKcs(−/−) (MO59J) = assay: Timing of apoptosis (caspase-3 activation); assay type: cell-based; conditions: Cell Line DNAPKcs(−/−); dosed at 30 fold above the EC50 for cytotoxicity
# [3] = parameters: species or system female CD-1 mice; conditions: mouse, in vivo
# Protocol: Female CD-1 mice were administered 5, 10, 15, or 20 mg/kg SNS-595 intravenously on Day 0 and Day 4. Blood was drawn on days 6, 8, and 12 post initial injection for hematological analysis. Femurs were extracted on day 6 fixed in Streck and H&E stained prior to bone marrow cellularity analysis. […] At 20 mg/kg, cellularity was reduced to 7.5%, while circulating neutrophils were reduced from a pre-dose level of […] to a nadir of 51±24 cells/mL blood on day 8.
# [4] = test system: HCT-116 cells treated with 2 mM caffeine; assay: Timing of apoptosis (caspase-3 activation); assay type: cell-based; conditions: Cell Line Caffeine (HCT-116, 2 mM caffeine); dosed at 30 fold above the EC50 for cytotoxicity
compound,measurement,setting,value
"CN[C@H]1CN(c2ccc3c(=O)c(C(=O)O)cn(-c4nccs4)c3n2)C[C@@H]1OC [SNS-595, (+)-1,4-dihydro-7-[(3S,4S)-3-methoxy-4-(methylamino)-1-pyrrolidinyl]-4-oxo-1-(2-thiazolyl)-1,8-naphthyridine-3-carboxylic acid]",AUC(0-inf),clinical; 9 mg/m2,4.3 ± 1.3 µg·h/mL
same,AUC(0-inf),clinical; 13.5 mg/m2,5.9 ± 2.9 µg·h/mL
same,half-life,clinical; 13.5 mg/m2,21 ± 7 h
same,AUC(0-inf),clinical; 18 mg/m2,8 ± 1.4 µg·h/mL
same,AUC(0-inf),clinical; 27 mg/m2,17.8 ± 5 µg·h/mL
same,half-life,clinical; 27 mg/m2,22 ± 10 h
same,"terminal half-lives, averaged",clinical; both,23 h
same,T ½,"clinical; both, 9 mg/m2",24 ± 5 h
same,Vssobs,"clinical; both, 9 mg/m2",65 ± 2 L/m^2
same,Vssobs,"clinical; both, 13.5 mg/m2",61 ± 6 L/m^2
same,T ½,"clinical; both, 18 mg/m2",24 ± 4 h
same,Vssobs,"clinical; both, 18 mg/m2",72 ± 21 L/m^2
same,Vssobs,"clinical; both, 27 mg/m2",47 ± 21 L/m^2
same,"CL, averaged",clinical,~2 L/hr/m^2
same,"Vss, averaged",clinical,58 L/m^2
same,dose limiting toxicity (DLT),"[1]; human, in vivo",neutropenia
same,dose-limiting toxicity (DLT),"[1]; human, in vivo",neutropenia
same,"edema peripheral, no. patients with Grade ≧ 3/no. patients with any Grade","[1]; human, in vivo",0/4*
same,grade 4 thrombocytopenia,"[1]; human, in vivo",two patients
same,non-hematologic toxicities,"[1]; human, in vivo",mostly grade 1/2
same,"pain in extremity, no. patients with Grade ≧ 3/no. patients with any Grade","[1]; human, in vivo",0/5
same,"SAE possibly related to study drug: Sepsis, CTCAE v3.0 Grade","[1]; q3wk, 1 patient",Grade 3
same,MTD,[1]; study A (qwk×3),15 mg/m^2
same,MTD,"[1]; study B (q3wk), heavily pretreated (HP) patients",48 mg/m^2
same,MTD,"[1]; study B (q3wk), minimally pretreated (MP) patients",60 mg/m^2
same,antitumor activity against LM-3 Jck malignant lymphoma,[2]; 20 and 25 mg/kg,strong antitumor activity with complete tumor regressions
same,IR (%) (tumor inhibition rate),[2]; 20 mg/kg,98.9* %
same,IR (%) (tumor inhibition rate),[2]; 25 mg/kg,98.5* %
same,Survival Ratio,[2]; 20 mg/kg,6/6
same,Survival Ratio,[2]; 25 mg/kg,6/6
same,Timing of apoptosis: fraction of cell cycle to achieve 50% maximal caspase-3 activation,DNAPKcs(−/−) (MO59J),0.25
same,peripheral neutrophils,[3],significant decrease
same,platelet response,[3],minor platelet response
same,Total WBCs,[3]; iv,"reached a nadir on day 8, but returned to normal levels"
same,Timing of apoptosis: fraction of cell cycle to achieve 50% maximal caspase-3 activation,[4],0.25
